The source of these data is US20250188037A1, “N-(PYRROLIDIN-3-YL OR PIPERIDIN-4-YL)ACETAMIDE DERIVATIVES” (Takeda Pharmaceutical Company Limited, priority 2022, published 2025).

SMILES strings stand for the structures. Where two headings read alike, the source gives them in different places.

Experiment [1] concerns the target T1, SSTR4 (Homo sapiens (Human), UniProt P31391). As to the kind of experiment: Inhibition of forskolin stimulated cAMP in cells overexpressing SSTR4. In kind it is cell-based. As to conditions: inhibition of forskolin stimulated cAMP in CHO-K1 cells overexpressing SSTR4; read-out: SSTR4 Activity pEC50 (converted). As for the experimental part: Inhibition of Forskolin Stimulated cAMP in Cells Overexpressing SSTR4
This cell-based assay measures the ability of compounds to inhibit forskolin stimulated cAMP in CHO-K1 cells overexpressing SSTR4. CHO-K1 cells overexpressing SSTR4 (CHO-SSTR4) are purchased from DiscoveRx (product code 95-0059C2). The CHO-SSTR4 cells are maintained in F12K media with 10% Fetal Bovine Serum (Hyclone), 1% Pen/Strep (Life Technologies), and 800 μg/mL G418 (Life Technologies). […] The next day, the culture media is removed from the cells and the cells are washed (added then removed) with Krebs Ringer Buffer (ZenBio, KRB-1000 mL). […] The cells are incubated in 10 μL compound/stimulation buffer for 30 minutes at room temperature. Cellular cAMP levels are detected with a HTRF LANCE Ultra cAMP kit (Perkin Elmer, catalog number TRF0264).
The assay is performed in accordance with the manufacturer's instructions. […] of diluted Eu—W8044 labeled streptavidin (dilution: 1:50 in cAMP Detection Buffer) is added to each well. Then 5 μL of diluted biotin cAMP (dilution: 1:150 in cAMP Detection Buffer) is added to each well. The plates are covered and allowed to incubate for 60 minutes at room temperature on a shaker. […] The pEC50 values are generated using Activity Base for Screening Data Management.

In experiment [2] the target is T2, SSTR1 (Homo sapiens (Human), UniProt P30872). As to the kind of experiment: biochemical.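 Also: binding assay on CHO-K1 cell membranes overexpressing SSTR1, incubated 60 min at room temperature, bound fraction collected on filters and read by scintillation counting.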
T2 sequence (P30872 whole entry): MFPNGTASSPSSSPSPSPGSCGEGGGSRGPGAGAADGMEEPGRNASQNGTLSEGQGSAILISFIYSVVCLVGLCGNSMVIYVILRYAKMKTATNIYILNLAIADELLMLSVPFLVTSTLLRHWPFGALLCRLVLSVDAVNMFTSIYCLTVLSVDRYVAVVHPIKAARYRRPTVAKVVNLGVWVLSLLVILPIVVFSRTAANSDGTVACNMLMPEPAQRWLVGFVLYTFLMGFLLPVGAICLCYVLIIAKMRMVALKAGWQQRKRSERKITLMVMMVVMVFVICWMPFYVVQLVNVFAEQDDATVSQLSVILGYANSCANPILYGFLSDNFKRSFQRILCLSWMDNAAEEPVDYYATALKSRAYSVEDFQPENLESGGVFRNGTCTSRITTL
Procedure: (§1) Membranes from CHO-K1 cells overexpressing SSTR1 are purchased from Perkin Elmer (catalog number ES-520-M400UA). […] Then 10 μg of SSTR1 membranes in 50 μL assay buffer are added per well. The plate is incubated for 60 minutes at room temperature. […] The contents of the assay plate are transferred to filters with a TomTech harvester and washed 5 times with 20 mM HEPES, 100 mM NaCl. […] The scintillator sheets are melted to the filters using a heat block. The filters are then read in a MicroBeta scintillation counter. Binding Ki curves are generated using Activity Base for Screening Data Management and the results are reported as pIC50.
For experiment [3], the target named is T1, SSTR4. As to the kind of experiment: SSTR4 I-125 somatostatin competition binding assay. As to conditions: for IC50: membranes from CHO-K1 cells overexpressing SSTR4, read-out: SSTR4 Binding pIC50 (converted); for SSTR4 Binding pIC50: membranes from CHO-K1 cells overexpressing SSTR4. An excerpt: The scintillator sheets are melted to filters using a heat block.

Experiment [4] deals with T2, SSTR1.
Procedure: as §1

T1 sequence (P31391 whole entry): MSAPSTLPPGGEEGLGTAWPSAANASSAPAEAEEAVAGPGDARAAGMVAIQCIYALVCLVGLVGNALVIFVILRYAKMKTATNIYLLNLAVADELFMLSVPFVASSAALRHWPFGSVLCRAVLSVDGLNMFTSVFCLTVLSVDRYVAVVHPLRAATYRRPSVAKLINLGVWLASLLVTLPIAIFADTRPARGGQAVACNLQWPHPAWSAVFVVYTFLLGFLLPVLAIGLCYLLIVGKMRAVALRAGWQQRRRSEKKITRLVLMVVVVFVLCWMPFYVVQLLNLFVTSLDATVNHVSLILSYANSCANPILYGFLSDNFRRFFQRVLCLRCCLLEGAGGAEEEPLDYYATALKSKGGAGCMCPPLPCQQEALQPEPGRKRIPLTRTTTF

In the case of `Cc1cccc(CC2(C(=O)N[C@@H]3CN(C)C[C@H]3C(C)C)CC2)c1` (racemic) [Example 3, N-(trans-4-isopropyl-1-methylpyrrolidin-3-yl)-1-(3-methylbenzyl)cyclopropane-1-carboxamide], the EC50 in experiment [1] was 12.6 nM. In addition, the IC50 in experiment [2] is 5.37 µM; in experiment [3], 91.2 nM.

As for `C[C@@H]1CN(C)CC[C@H]1NC(=O)C1(Cc2ccc(F)cc2)CC1` (racemic) [Example 10, N-(trans-1,3-dimethylpiperidin-4-yl)-1-(4-fluorobenzyl)cyclopropane-1-carboxamide], in experiment [1], the EC50 is 70.8 nM. Moreover, the IC50 in experiment [2] is 15.5 µM; in experiment [3], 513 nM.

Regarding `Cc1ccccc1CC1(C(=O)N[C@@H]2CCN(C)C[C@H]2C)CC1` (racemic) [Example 12, N-(trans-1,3-dimethylpiperidin-4-yl)-1-(2-methylbenzyl)cyclopropane-1-carboxamide], in experiment [1], the EC50 was 57.5 nM. Moreover, the IC50 in experiment [2] is 15.8 µM; in experiment [3], 891 nM.

Regarding `C[C@@H]1C[C@H](NC(=O)C2(CN(C)c3cccc(Cl)n3)CC2)CCN1C` [Example 41, 1-(((6-chloropyridin-2-yl)(methyl)amino)methyl)-N-((2R,4R)-1,2-dimethylpiperidin-4-yl)cyclopropane-1-carboxamide], the EC50 in experiment [1] was 56.2 nM. For the same compound, the IC50 in experiment [4] is over 50.1 µM. Besides, the “SSTR4 Binding pIC50” value in experiment [3] amounted to 6.53.

As for `O=C(N[C@H]1CCNC[C@@H]1F)C1(Cc2ccccc2F)CC1` [Example 43, 1-(2-fluorobenzyl)-N-((3S,4S)-3-fluoropiperidin-4-yl)cyclopropane-1-carboxamide], the EC50 in experiment [1] was 63.1 nM. Moreover, the IC50 in experiment [4] was over 50.1 µM. Moreover, the “SSTR4 Binding pIC50” value in experiment [3] stood at 6.87.

On to `COc1cccc(CC2(C(=O)N[C@H]3CCNC[C@@H]3F)CC2)c1` [Example 46, N-((3S,4S)-3-fluoropiperidin-4-yl)-1-(3-methoxybenzyl)cyclopropane-1-carboxamide], for which the EC50 in experiment [1] was 11.7 nM. Besides, in experiment [4], the IC50 was over 50.1 µM. For the same compound, in experiment [3], the “SSTR4 Binding pIC50” value was 7.29.

For `C[C@H]1C[C@@H](NC(=O)C(F)(F)Oc2ccccc2)CCN1` [Example 48, 2,2-difluoro-N-((2S,4S)-2-methylpiperidin-4-yl)-2-phenoxyacetamide], in experiment [1], the EC50 is 91.2 nM. The IC50 in experiment [4] was over 50.1 µM. Further, in experiment [3], the “SSTR4 Binding pIC50” value worked out at 5.43.

`C[C@@H]1C[C@H](NC(=O)C(F)(F)Oc2ccccc2)CCN1` [Example 51, 2,2-difluoro-N-((2R,4R)-2-methylpiperidin-4-yl)-2-phenoxyacetamide]: the EC50 in experiment [1] is 35.5 nM. This compound also gave an IC50 in experiment [4] of over 50.1 µM. The “SSTR4 Binding pIC50” value in experiment [3] amounted to 5.53.

Take `C[C@H]1C[C@H](NC(=O)C(F)(F)Oc2ccccc2)CCN1` [Example 53, 2,2-difluoro-N-((2S,4R)-2-methylpiperidin-4-yl)-2-phenoxyacetamide]: in experiment [1], the EC50 is 55 nM. Further, the IC50 in experiment [4] is over 50.1 µM. Further, the “SSTR4 Binding pIC50” value in experiment [3] is 5.43.

With `C[C@H]1CNCC[C@@H]1NC(=O)C(F)(F)Oc1ccccc1F` [Example 54, 2,2-difluoro-2-(2-fluorophenoxy)-N-((3S,4S)-3-methylpiperidin-4-yl)acetamide], the EC50 in experiment [1] is 21.4 nM. In addition, in experiment [4], the IC50 was over 50.1 µM. Besides, in experiment [3], the “SSTR4 Binding pIC50” value came to 6.55.

Consider `C[C@H]1CNCC[C@@H]1NC(=O)C(F)(F)Oc1cccc(F)c1` [Example 55, 2,2-difluoro-2-(3-fluorophenoxy)-N-((3S,4S)-3-methylpiperidin-4-yl)acetamide], for which the EC50 in experiment [1] was 5.25 nM. In experiment [4], this compound gave an IC50 of over 50.1 µM. The “SSTR4 Binding pIC50” value in experiment [3] is recorded as 7.13.

Consider `Cc1ccccc1OC(F)(F)C(=O)N[C@H]1CCNC[C@@H]1C` [Example 56, 2,2-difluoro-N-((3S,4S)-3-methylpiperidin-4-yl)-2-(o-tolyloxy)acetamide], for which the EC50 in experiment [1] is 1.7 nM. This compound gave an IC50 in experiment [4] of 44.7 µM. Also, in experiment [3], the “SSTR4 Binding pIC50” value is listed as 7.14.

With `C[C@H]1CNCC[C@@H]1NC(=O)C(F)(F)Oc1ccc(F)cc1` [Example 58, 2,2-difluoro-2-(4-fluorophenoxy)-N-((3S,4S)-3-methylpiperidin-4-yl)acetamide], the EC50 in experiment [1] is 5.01 nM. This compound had an IC50 in experiment [4] of 46.8 µM. Also, the “SSTR4 Binding pIC50” value in experiment [3] worked out at 6.77.

As for `C[C@H]1CNCC[C@@H]1NC(=O)C(F)(F)Oc1ccccc1Cl` [Example 64, 2-(2-chlorophenoxy)-2,2-difluoro-N-((3S,4S)-3-methylpiperidin-4-yl)acetamide], the EC50 in experiment [1] is 1.32 nM. The compound further gave an IC50 in experiment [4] of 19.1 µM. Further, the “SSTR4 Binding pIC50” value in experiment [3] is recorded as 7.25.

For `O=C(NC1CCNCC1)C(F)(F)Oc1ccccc1Cl` [Example 70, 2-(2-chlorophenoxy)-2,2-difluoro-N-(piperidin-4-yl)acetamide], the EC50 in experiment [1] was 18.2 nM. In experiment [4], the IC50 is over 50.1 µM. For the same compound, the “SSTR4 Binding pIC50” value in experiment [3] is reported as 6.48.
